The record followed here is patent US9364450B2, “Clenbuterol for use in treatment of autism” (STOW[…]. CELESTYNA, priority 2011, dated 2016).

SMILES strings stand for the structures.

The data set is described as follows: Administration of clenbuterol to patients with autistic symptoms (case examples). It is filed as in vivo, autistic children. On the procedure:
A patient with autistic symptoms in the form of disorders of social integration, verbal and non-verbal communication, play disorders and concomitant anxiety, especially when changing environment, was administered clenbuterol at a dose of ¼ tablet containing 20 μg of clenbuterol once daily for a period of 3 months.
A patient with pediatric autism and cerebral palsy was administered the medication at a dose of ¼ of 20 μg tablet twice daily for a period of 12 months.
A patient with early pediatric autism, psychomotor hyperactivity syndrome and speech development delay was administered clenbuterol at a dose of ¼ of 20 μg tablet once daily for a period of 12 months.
It has been assumed that clenbuterol, modulating the brain neurotransmitter systems, affects also the endocrine and immunological system. As a result, alleviation of communication disorders and improved contact with surroundings is observed in autistic children.

With `CC(C)(C)NCC(O)c1cc(Cl)c(N)c(Cl)c1` (racemic) [clenbuterol, (RS)-1-(4-amino-3,5-dichlorophenyl)-2-(tert-butylamino)ethanol], for the setting “administration at very small doses to autistic children”, the “Overall effects observed in autistic children” value was “Improved contact with surroundings, better concentration, improved ability to plan a specific task, improved understanding, calming, and reduced psychomotor anxiety were observed”. For the same compound, under “administration of effective amounts of clenbuterol or its pharmaceutically effective salt”, the “Effect on functional disorders related to ASD” value was “seems to practically alleviate functional disorders related to ASD”. Also, under “long-term administration of clenbuterol or its pharmaceutically acceptable salt”, the Adverse effects result is given as “no adverse effects associated with medications previously used in treatment of autism were observed”. For the same compound, the “Change in autistic symptoms after therapy (interest in environment, contact with surroundings, anxiety)” value (patient with autistic symptoms, 1/4 tablet containing 20 μg once daily for 3 months) is “increased interest in the environment was observed; the child's contact with surroundings improved and its anxiety symptoms decreased”. For the same compound, where the note is “patient with early pediatric autism, psychomotor hyperactivity syndrome and speech development delay, 1/4 of 20 μg tablet once daily for 12 months”, the “Change in autistic symptoms after treatment (speech expression, psychomotor anxiety, grimacing)” value was “Improvement in speech expression was achieved as well as reduction of psychomotor anxiety and grimacing”. The “Change in autistic symptoms after treatment (understanding, concentration, attention, speech)” value (patient with pediatric autism and cerebral palsy, 1/4 of 20 μg tablet twice daily for 12 months) was “improvement with respect to understanding, concentration, attention, and speech”.
